{
  "source": "paper PMC5344979",
  "about": "“Stabilizing short-lived Schiff base derivatives of 5-aminouracils that activate mucosal-associated invariant T cells” (Nature Communications, 2017)",
  "key": {"[1]": {"tested_on": "human MAIT TCR-transduced Jurkat T cells and MR1-overexpressed C1R cells", "test": "MAIT reporter cell activation assay (surface CD69 on Jurkat.MAIT)", "type": "cell-based", "details": "Jurkat.MAIT + C1R.MR1, 16 h", "method": "MAIT activation was evaluated using a well established reporter assay[17] by co-culturing two cell lines (human MAIT TCR-transduced Jurkat T cells and MR1-overexpressed C1R cells, Fig. 3g).\nMAIT reporter cell activation assays and MR1 upregulation assays were performed by slight modifications to reported methods. Briefly, Jurkat cells transduced with genes encoding a MAIT TCR comprising the TRAV1-2-TRAJ33 invariant α chain, and a TRBV6-1 β chain, were tested for activation by co-incubation with compounds and C1R antigen-presenting cells expressing MR1 (CIR.MR1) for 16 h or over a time course as indicated. Cells were subsequently stained with PE-Cy7-conjugated anti-CD3 (UCHT1, eBioscience, 1:300), and APC-conjugated anti-CD69 (BD, 1:25) antibodies as well as biotinylated anti-MR1 mAb 26.5, a gift from Dr Ted Hansen, Washington University School of Medicine, St Louis, MO[53], followed by Streptavidin-PE (BD, 1:1,000), before analysis by on a FACS CantoII (BD) flow cytometer. Activation of Jurkat.MAIT was measured by an increase in surface CD69 expression. MR1 expression was detected on gated C1R.MR1 cells in the same assay. […]\nMAIT reporter cell activation assay\nConducted as described previously16. Jurkat cells transduced with genes encoding a MAIT TCR comprising the TRAV1-2-TRAJ33 invariant α chain and a TRBV6-1 β chain were co-incubated with C1R antigen presenting cells expressing MR1 (CIR.MR1) in the presence of graded amounts of ligands for 16 h. Cells were subsequently stained with PE-Cy7-conjugated anti-CD3 (eBioscience), and APC-conjugated anti-CD69 (BD Biosciences) antibodies, followed by Streptavidin-PE (BD Biosciences), before analysis by flow cytometry. Activation of Jurkat.MAIT cells was measured by an increase in surface CD69 expression."}, "[2]": {"test": "Stability in aqueous media (LCMS)", "details": "for t1/2: C0 0.065 mM", "procedure": "(§1) Stock solutions of either crude (3a, 3b and 9) or purified compounds (3c, 10 and 11) in DMSO-d6, with a known concentration calibrated using the PULCON NMR technique[52], were dissolved in aqueous buffers, such as TBS buffer (10 mM Tris, 150 mM NaCl, pH 8.0), PBS (pH 7.4), MilliQ water (pH 6.8), or aqueous ammonium acetate buffer (20 mM, pH 5.4, 150 mM NaCl). Consumption of 3 was monitored by LCMS.\n(§2) Stability in aqueous media. TBS buffer (10 mM Tris, 150 mM NaCl,\n(§3) pH 8.0), PBS (pH 7.4), MilliQ water (pH 6.8), or ammonium acetate buffer (20 mM, 150 mM\n(§4) The initial concentration was quantified by measuring the LCMS UV chromatogram\n(§5) absorbance peak area at 365 nm. Data shown as % of initial concentration."}, "[3]": {"test": "physchem", "details": "for half-life: PBS buffer", "procedure": "as §1, §2, §3, §4, §5"}, "[4]": {"test": "Stability in DMSO (NMR)", "type": "physicochemical", "details": "for days at room temperature"}, "[5]": {"tested_on": "MR1 on C1R.MR1 cells", "test": "Upregulation of MR1 surface expression", "type": "cell-based, human", "details": "24 h time course, mAb 26.5", "method": "MAIT reporter cell activation assays and MR1 upregulation assays were performed by slight modifications to reported methods. Briefly, Jurkat cells transduced with genes encoding a MAIT TCR comprising the TRAV1-2-TRAJ33 invariant α chain, and a TRBV6-1 β chain, were tested for activation by co-incubation with compounds and C1R antigen-presenting cells expressing MR1 (CIR.MR1) for 16 h or over a time course as indicated. Cells were subsequently stained with PE-Cy7-conjugated anti-CD3 (UCHT1, eBioscience, 1:300), and APC-conjugated anti-CD69 (BD, 1:25) antibodies as well as biotinylated anti-MR1 mAb 26.5, a gift from Dr Ted Hansen, Washington University School of Medicine, St Louis, MO[53], followed by Streptavidin-PE (BD, 1:1,000), before analysis by on a FACS CantoII (BD) flow cytometer. Activation of Jurkat.MAIT was measured by an increase in surface CD69 expression. MR1 expression was detected on gated C1R.MR1 cells in the same assay."}, "[6]": {"molecular_target": "T1, human MR1 (Homo sapiens, UniProt Q95460)", "T1 construct": "Genes encoding soluble human MR1 or human β2m were expressed; made in house", "T1 sequence (P61769 21-119)": "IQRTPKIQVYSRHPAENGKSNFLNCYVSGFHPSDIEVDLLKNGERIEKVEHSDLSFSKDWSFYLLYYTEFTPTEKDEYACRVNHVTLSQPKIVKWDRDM", "T1 sequence (Q95460 23-302)": "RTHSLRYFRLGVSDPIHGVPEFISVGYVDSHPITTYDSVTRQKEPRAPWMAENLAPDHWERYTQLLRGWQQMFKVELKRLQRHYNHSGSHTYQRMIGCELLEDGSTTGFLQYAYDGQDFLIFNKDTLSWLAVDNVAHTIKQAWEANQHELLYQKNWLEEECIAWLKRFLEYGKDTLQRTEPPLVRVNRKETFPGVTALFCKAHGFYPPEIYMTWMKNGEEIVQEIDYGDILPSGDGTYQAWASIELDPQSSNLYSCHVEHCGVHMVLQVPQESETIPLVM", "test": "MR1 refolding with ligand", "type": "binding", "details": "in the presence of the compound", "method": "E. coli were pelleted and resuspended in a buffer containing 50 mM Tris, 25% (w/v) sucrose, 1 mM EDTA, 10 mM DTT pH 8.0."}, "[7]": {"tested_on": "human MAIT cells", "test": "In vitro PBMC stimulation assay (intracellular cytokine staining)", "type": "cell-based", "details": "human PBMCs alone or with THP-1 cells", "method": "To assess the ability of 11 to activate MAIT cells, human PBMCs were cultured alone, or with THP-1 cells, in the presence of the compounds, and cytokine production assessed by intracellular cytokine staining.\nStimulation of PBMCs was performed essentially as previously described. Briefly, 5 × 10^5 PBMCs were cultured, alone or with 1 × 10^5 THP-1 cells, overnight with or without compounds 3c or 11 at a range of doses or with PMA and ionomycin (5 ng ml^−1 and 1 μg ml^−1 final concentrations, respectively) as a positive control. BD GolgiStop (1:1,000 dilution) was added after the first hour of stimulation. Cells were stained for surface markers using human MR1-5-OP-RU tetramer (PE, 1:300), and monoclonal antibodies to CD3 (PE-CF594, UCHT1, BD Horizon, 1:50), CD161 (PE-Cy7, HP-3G10, Biolegend, 1:50) for 30 min on ice and fixed in 1% paraformaldehyde before cytokine production by MAIT cells was detected by intracellular cytokine staining with monoclonal antibodies to TNF (APC, MAb11, eBioscience, 1:50) and IFNγ (AlexaFluor700, B27, BD 1:50) in the presence of 0.3% saponin. Data was acquired on a BD LSR-Fortessa and analysed using FlowJo software (Tree Star)."}, "[8]": {"details": "PBS pH 7.4, 37 °C, DMSO stock diluted into buffer"}},
  "data": [
    {"smiles": "CC(=O)C(C)=Nc1c(NCC(O)C(O)C(O)CO)[nH]c(=O)[nH]c1=O", "note": "[3a, 5-(1-methyl-2-oxopropylideneamino)-6-D-ribitylaminouracil]", "values": [
      {"measurement": "EC50", "setting": "[1]", "value": 24, "unit": "nM"},
      {"measurement": "time to complete degradation", "setting": "[2]; pH 8.0, 15 °C", "value": "< 5", "unit": "min"}
    ]},
    {"smiles": "O=CC=Nc1c(NCC(O)C(O)C(O)CO)[nH]c(=O)[nH]c1=O", "note": "[3b, 5-(2-oxoethylideneamino)-6-D-ribitylaminouracil]", "values": [
      {"measurement": "EC50", "setting": "[1]", "value": 0.51, "unit": "nM"},
      {"measurement": "half-life at 0.065 mM", "setting": "[3]; TBS buffer, pH 8", "value": 0.3, "unit": "h"}
    ]},
    {"smiles": "CC(=O)C=Nc1c(NCC(O)C(O)C(O)CO)[nH]c(=O)[nH]c1=O", "note": "[3c, 5-(2-oxopropylideneamino)-6-D-ribitylaminouracil]", "values": [
      {"measurement": "stable in DMSO solution", "setting": "[4]", "value": "> 95", "unit": "%"},
      {"measurement": "time at which MR1 upregulation peaked", "setting": "[5]", "value": 4, "unit": "h"},
      {"measurement": "half-life at 1 mM", "setting": "[3]; MilliQ water, pH 6.8", "value": 7.68, "unit": "h"},
      {"measurement": "half-life", "setting": "[3]; pH 7.4", "value": 0.2, "unit": "h"},
      {"measurement": "half-life", "setting": "[3]; pH 8", "value": 14, "unit": "h"},
      {"measurement": "half-life at 0.065 mM", "setting": "[3]; TBS buffer, pH 8", "value": 14.4, "unit": "h"},
      {"measurement": "half-life at 0.25 mM", "setting": "[3]; TBS buffer, pH 8", "value": 14.9, "unit": "h"},
      {"measurement": "half-life at 10 mM", "setting": "[3]; TBS buffer, pH 8", "value": 8.63, "unit": "h"},
      {"measurement": "t1/2", "setting": "[2]; PBS pH 7.4, 15 °C", "value": 5.7, "unit": "h"},
      {"measurement": "t1/2", "setting": "[2]; [8]", "value": 1.47, "unit": "h"},
      {"measurement": "t1/2", "setting": "[2]; pH 5.4 ammonium acetate buffer, 15 °C", "value": 0.733, "unit": "h"},
      {"measurement": "t1/2", "setting": "[2]; pH 5.4 ammonium acetate buffer, 37 °C", "value": 0.217, "unit": "h"},
      {"measurement": "half-life", "setting": "[2]; pH 6.8 (MilliQ water), 15 °C, 0.065 mM", "value": 12, "unit": "h"},
      {"measurement": "t1/2", "setting": "[2]; pH 6.8 MilliQ water, 15 °C", "value": 12.3, "unit": "h"},
      {"measurement": "t1/2", "setting": "[2]; pH 6.8 MilliQ water, 37 °C", "value": 2.18, "unit": "h"}
    ]},
    {"smiles": "Cc1cnc2c(=O)[nH]c(=O)nc-2n1C[C@H](O)[C@H](O)[C@H](O)CO", "note": "[4c]", "values": [
      {"measurement": "EC50", "setting": "[1]", "value": "> 100", "unit": "nM"}
    ]},
    {"smiles": "Nc1c(NC[C@H](O)[C@H](O)[C@H](O)CO)[nH]c(=O)[nH]c1=O", "note": "[compound 1, 5-amino-6-D-ribitylaminouracil, reference compound]", "values": [
      {"measurement": "EC50", "setting": "[1]", "value": 18, "unit": "nM"}
    ]},
    {"smiles": "CC(=O)/C=N/c1c(N(C)C[C@H](O)[C@H](O)[C@H](O)CO)[nH]c(=O)[nH]c1=O", "note": "[compound 9]", "values": [
      {"measurement": "EC50", "setting": "[1]", "value": "14 ± 14", "unit": "nM"},
      {"measurement": "t1/2", "setting": "[2]; PBS pH 7.4, 15 °C", "value": 1.92, "unit": "h"},
      {"measurement": "t1/2", "setting": "[2]; [8]", "value": 0.65, "unit": "h"}
    ]},
    {"smiles": "CC(=O)/C=C/c1c(N(C)C[C@H](O)[C@H](O)[C@H](O)CO)[nH]c(=O)[nH]c1=O", "note": "[compound 10]", "values": [
      {"measurement": "EC50", "setting": "[1]", "value": "> 10000", "unit": "nM"},
      {"measurement": "t1/2", "setting": "[2]; PBS pH 7.4, 15 °C", "value": 10.2, "unit": "h"},
      {"measurement": "t1/2", "setting": "[2]; [8]", "value": 2.25, "unit": "h"}
    ]},
    {"smiles": "CC(=O)/C=C/c1c(CC[C@H](O)[C@H](O)[C@H](O)CO)[nH]c(=O)[nH]c1=O", "note": "[compound 11]", "values": [
      {"measurement": "MR1 surface expression", "setting": "[5]", "value": "continued to increase over 24 h"},
      {"measurement": "refolding of human MR1", "setting": "[6]", "value": "readily refolded"},
      {"measurement": "cytokine production by human MAIT cells", "setting": "[7]", "value": "stimulated the production of interferon-γ (IFNγ) and tumour necrosis factor (TNF)"},
      {"measurement": "aqueous stability", "setting": "[2]; PBS buffer pH 7.4, 37 °C, 5 days", "value": "no degradation observed over 5 days"}
    ]}
  ]
}
